Data from US20210387978A1, “CYCLOBUTYL DIHYDROQUINOLINE SULFONAMIDE COMPOUNDS” (AMGEN INC., priority 2020, published 2021).

Biological target: T1, Human Nav1.7 (Homo sapiens, UniProt Q15858)
T1 construct: expressed in transfected cells; host or cells: Spiking HEK cells (without Kir2.1 transfection)
Assay: IonWorks Barracuda (IWB) automated patch clamp assay
Format: cell-based
Conditions: human Nav1.7 currents, HEK cells, population patch-clamp, state- and use-dependent voltage protocol; read-out: hNaV1.7 IWB-U IC50
Procedure: Ionaworks Barracuda […] Automated Patch Clamp Assay (Same Protocol for Both Human and Mouse)
Human Nav1.7 currents were recorded in population patch-clamp mode with the IWB automated electrophysiology system (Molecular Devices, LLC, Sunnyvale, Calif.). Spiking HEK cells (without Kir2.1 transfection) were cultured and prepared for recordings as previously described for IonWorks Quattro testing^1. The external solution consisted of the following (in mM): NaCl 140, KCl 5, CaCl2 2, MgCl2 1, HEPES 10, and glucose 11, pH 7.4, with N-methyl-D-glucamine at 320 mOsmol. […] From a holding potential of −110 mV, currents were elicited by a train of 26 depolarizations of 150 ms duration to −20 mV at a frequency of 5 Hz. Cells were then clamped to −20 mV for a period of 4 minutes in the presence of a single concentration of test compound. Following this compound incubation period, cells were clamped to −110 mV for three seconds to recover unbound channels and put through the same 26 pulse voltage protocol as above. Peak inward current during the 26th pulse to −20 mV in the presence of compound was divided by the peak inward current evoked by the 26th pulse to −20 mV in the absence of compound to determine percent inhibition. Concentration-response curves of percent inhibition as a function of concentration were generated to calculate IC50 values as described in Kornecook, T. J.; Yin, R.; Altmann, S.; et al. Pharmacologic Characterization of AMG8379, a Potent and Selective Small Molecule Sulfonamide Antagonist of the Voltage-Gated Sodium Channel NaV1. 7.
The potency of the compounds of the present invention were evaluated on human Nav1.7 channels using the above described IonWorks Barracuda automated electrophysiology platform that evaluates the ability of compounds to block sodium conductance through Nav1.7 channels. A voltage-protocol that prosecutes both state-dependent as well as use-dependent inhibition was used as these modes of action are thought to be more relevant for the native state of Nav1.7 channels in pain sensing neurons in vivo.

T1 sequence (Q15858 whole entry): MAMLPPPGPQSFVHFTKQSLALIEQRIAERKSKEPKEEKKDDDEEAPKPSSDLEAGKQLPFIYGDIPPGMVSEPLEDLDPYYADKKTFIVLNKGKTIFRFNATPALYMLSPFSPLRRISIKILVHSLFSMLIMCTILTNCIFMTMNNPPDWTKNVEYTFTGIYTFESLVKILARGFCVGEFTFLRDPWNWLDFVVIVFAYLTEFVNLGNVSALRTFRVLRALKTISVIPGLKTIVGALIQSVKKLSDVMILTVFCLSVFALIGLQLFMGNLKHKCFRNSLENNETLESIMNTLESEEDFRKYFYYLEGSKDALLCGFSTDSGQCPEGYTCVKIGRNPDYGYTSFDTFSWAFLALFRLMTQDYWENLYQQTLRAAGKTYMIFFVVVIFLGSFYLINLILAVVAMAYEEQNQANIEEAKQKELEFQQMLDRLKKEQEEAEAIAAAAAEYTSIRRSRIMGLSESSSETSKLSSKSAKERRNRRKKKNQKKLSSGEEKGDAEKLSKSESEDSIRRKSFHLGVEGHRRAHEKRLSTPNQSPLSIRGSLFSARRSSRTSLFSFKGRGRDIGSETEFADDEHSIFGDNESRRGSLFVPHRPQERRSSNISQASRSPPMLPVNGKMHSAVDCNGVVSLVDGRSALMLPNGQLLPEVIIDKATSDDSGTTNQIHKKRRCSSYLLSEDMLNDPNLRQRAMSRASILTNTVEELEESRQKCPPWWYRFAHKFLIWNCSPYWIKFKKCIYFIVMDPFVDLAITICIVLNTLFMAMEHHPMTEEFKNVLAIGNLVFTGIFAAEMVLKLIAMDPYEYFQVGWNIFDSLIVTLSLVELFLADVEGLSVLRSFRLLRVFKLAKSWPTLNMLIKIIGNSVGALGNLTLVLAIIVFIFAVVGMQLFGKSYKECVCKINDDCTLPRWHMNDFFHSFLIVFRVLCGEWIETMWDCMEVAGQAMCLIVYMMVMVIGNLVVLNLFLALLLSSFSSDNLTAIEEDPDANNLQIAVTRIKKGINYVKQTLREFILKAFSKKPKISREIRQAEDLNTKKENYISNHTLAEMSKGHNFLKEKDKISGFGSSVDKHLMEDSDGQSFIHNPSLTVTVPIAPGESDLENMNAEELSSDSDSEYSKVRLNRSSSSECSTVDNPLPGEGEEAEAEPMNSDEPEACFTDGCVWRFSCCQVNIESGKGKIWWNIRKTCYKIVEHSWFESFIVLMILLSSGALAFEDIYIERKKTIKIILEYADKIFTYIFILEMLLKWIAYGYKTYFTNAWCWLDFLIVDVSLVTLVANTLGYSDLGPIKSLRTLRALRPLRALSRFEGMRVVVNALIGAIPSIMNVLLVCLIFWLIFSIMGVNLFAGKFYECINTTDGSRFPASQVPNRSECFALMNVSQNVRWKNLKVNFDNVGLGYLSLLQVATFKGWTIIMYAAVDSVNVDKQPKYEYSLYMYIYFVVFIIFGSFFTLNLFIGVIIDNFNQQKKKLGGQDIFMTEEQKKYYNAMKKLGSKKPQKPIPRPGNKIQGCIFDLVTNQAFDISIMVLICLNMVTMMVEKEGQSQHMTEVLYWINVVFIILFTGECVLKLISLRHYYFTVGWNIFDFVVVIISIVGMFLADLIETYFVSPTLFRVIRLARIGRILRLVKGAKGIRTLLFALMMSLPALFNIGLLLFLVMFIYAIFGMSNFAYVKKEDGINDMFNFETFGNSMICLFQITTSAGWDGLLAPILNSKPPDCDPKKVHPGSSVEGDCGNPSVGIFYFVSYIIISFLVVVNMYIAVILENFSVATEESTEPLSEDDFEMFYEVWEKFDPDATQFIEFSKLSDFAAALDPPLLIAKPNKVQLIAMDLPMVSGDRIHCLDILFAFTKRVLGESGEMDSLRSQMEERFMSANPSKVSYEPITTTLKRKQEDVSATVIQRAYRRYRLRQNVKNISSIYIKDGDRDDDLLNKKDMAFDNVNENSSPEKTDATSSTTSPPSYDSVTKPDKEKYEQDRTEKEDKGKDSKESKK

| IC50 [nM] | SMILES |
| --- | --- |
| 33 | COc1cc(C2CC(C(C)(C)C)C2)c(F)cc1-n1c(=O)ccc2cc(S(=O)(=O)Nc3ccon3)ccc21 (atropisomer, axis not shown; (P)) [Example 3, (P)-1-(4-(3-(tert-butyl)cyclobutyl)-5-fluoro-2-methoxyphenyl)-N-(isoxazol-3-yl)-2-oxo-1,2-dihydroquinoline-6-sulfonamide] |
| 15 | COc1cc(C2CC(F)(F)C2)c(F)cc1-n1c(=O)ccc2cc(S(=O)(=O)Nc3ccon3)ccc21 (atropisomer, axis not shown; (P)) [Example 4, (P)-1-(4-(3,3-difluorocyclobutyl)-5-fluoro-2-methoxyphenyl)-N-(isoxazol-3-yl)-2-oxo-1,2-dihydroquinoline-6-sulfonamide] |
| 2 | COc1cc(C2CC(F)(C(F)(F)F)C2)c(F)cc1-n1c(=O)ccc2cc(S(=O)(=O)Nc3ccon3)ccc21 (atropisomer, axis not shown; (P)) [Example 5, (P)-1-(5-fluoro-4-(3-fluoro-3-(trifluoromethyl)cyclobutyl)-2-methoxyphenyl)-N-(isoxazol-3-yl)-2-oxo-1,2-dihydroquinoline-6-sulfonamide] |
| 5 | COc1cc([C@H]2C[C@@](F)(C(F)(F)F)C2)c(F)cc1-n1c(=O)ccc2cc(S(=O)(=O)Nc3ccon3)ccc21 (atropisomer, axis not shown; (P)) [Example 8, trans-(P)-1-(5-fluoro-4-(3-fluoro-3-(trifluoromethyl)cyclobutyl)-2-methoxyphenyl)-N-(isoxazol-3-yl)-2-oxo-1,2-dihydroquinoline-6-sulfonamide] |
| 2 | COc1cc([C@H]2C[C@](F)(C(F)(F)F)C2)c(F)cc1-n1c(=O)ccc2cc(S(=O)(=O)Nc3ccon3)ccc21 (atropisomer, axis not shown; (P)) [Example 9, cis-(P)-1-(5-fluoro-4-(3-fluoro-3-(trifluoromethyl)cyclobutyl)-2-methoxyphenyl)-N-(isoxazol-3-yl)-2-oxo-1,2-dihydroquinoline-6-sulfonamide] |
| 8 | COc1cc([C@H]2C[C@](F)(C(F)(F)F)C2)c(Cl)cc1-n1c(=O)ccc2cc(S(=O)(=O)Nc3ccon3)ccc21 (atropisomer, axis not shown; (P)) [Example 10, cis-(P)-1-(5-chloro-4-(3-fluoro-3-(trifluoromethyl)cyclobutyl)-2-methoxyphenyl)-N-(isoxazol-3-yl)-2-oxo-1,2-dihydroquinoline-6-sulfonamide] |
| 2 | COc1cc([C@H]2C[C@@](F)(C(F)(F)F)C2)c(Cl)cc1-n1c(=O)ccc2cc(S(=O)(=O)Nc3ccon3)ccc21 (atropisomer, axis not shown; (P)) [Example 11, trans-(P)-1-(5-chloro-4-(3-fluoro-3-(trifluoromethyl)cyclobutyl)-2-methoxyphenyl)-N-(isoxazol-3-yl)-2-oxo-1,2-dihydroquinoline-6-sulfonamide] |
| 16 | COc1cc(C2CCC2)c(F)cc1-n1c(=O)ccc2cc(S(=O)(=O)Nc3ccon3)ccc21 (atropisomer, axis not shown; (P)) [Example 14, (P)-1-(4-cyclobutyl-5-fluoro-2-methoxyphenyl)-N-(isoxazol-3-yl)-2-oxo-1,2-dihydroquinoline-6-sulfonamide] |
| 18 | COc1cc([C@H]2C[C@@H](C(F)(F)F)C2)c(Cl)cc1-n1c(=O)ccc2cc(S(=O)(=O)Nc3ncccn3)ccc21 (atropisomer, axis not shown; (P)) [Example 16, cis-(P)-1-(5-chloro-2-methoxy-4-(3-(trifluoromethyl)cyclobutyl)phenyl)-2-oxo-N-(pyrimidin-2-yl)-1,2-dihydroquinoline-6-sulfonamide] |
| 15 | COc1cc([C@H]2C[C@H](C(F)(F)F)C2)c(Cl)cc1-n1c(=O)ccc2cc(S(=O)(=O)Nc3ncccn3)ccc21 (atropisomer, axis not shown; (P)) [Example 17, trans-(P)-1-(5-chloro-2-methoxy-4-(3-(trifluoromethyl)cyclobutyl)phenyl)-2-oxo-N-(pyrimidin-2-yl)-1,2-dihydroquinoline-6-sulfonamide] |
